Values quoted from earlier work as cited in US20090005431A1, “SUBSTITUTED PYRROLIDINES” (AUSPEX PHARMACEUTICALS, INC., priority 2007, published 2009).

Columns and labels:
Settings in all cases: human recombinant muscarinic receptor subtypes; cited from earlier work
[1] = system: M3 receptor compared to M5
[2] = system: M3 receptor compared to M1
[3] = system: M3 receptor compared to M2
[4] = system: M3 receptor compared to M4

In the case of NC(=O)C(c1ccccc1)(c1ccccc1)[C@@H]1CCN(CCc2ccc3c(c2)CCO3)C1 (stereo in doubt) [darifenacin, 2-{1-[2-(2,3-dihydro-benzofuran-5-yl)-ethyl]-pyrrolidin-3-yl}-2,2-diphenyl-acetamide], the “greater affinity for M3 compared to M5” value [1] is given as 12 fold, the “greater affinity for M3 compared to M1” value [2] is given as 9 fold and the “greater affinity for M3 compared to M2” value [3] is given as 59 fold. The “greater affinity for M3 compared to M4” value [4] was 59 fold.
